# Marks after values point to notes of the source that are not given here.
# Test system: C. albicans
# Experiment: in vivo antifungal activity, candidemia in mice infected with C. albicans
# Design: species or system Albino male mice; Total Protein Mean ± SE: unit not given here
# Conditions: for daily body weight / % change in daily body weight / Food consumption / Mortality / Water consumption: oral 12 mg/kg then 6 mg/ml
# Method: To confirm that the water soluble form of the compound 4 has a biological activity as a novel antimicrobial agent, effectiveness of the compound 4 as a drug to treat candidemia in mice was investigated. The experiment was performed in Experimental Animal Care Center (EACC), College of Pharmacy, King Saud University, Riyadh. Fifty Albino male mice, weighing nearly 30±2 gram were used. The mice were arranged in five groups, each including ten mice caged together, given water, and feed ad libitum. Negative control and control group were infected intravenously with 0.2 ml of C. albicans suspension (10^6 CFU/mouse) and 0.2 ml of sterile normal saline (0.89% Nacl) respectively. The group treated with standard drug (fluconazole) was infected intravenously with 0.2 ml of C. albicans suspension (10^6 CFU/mouse) and treated (orally) by 12 mg/kg of fluconazole (loading dose) on the first day followed by 6 mg/ml for 2 weeks. The group treated with the investigated compound 4 was infected intravenously with C. albicans at 10^6 CFU/mouse (0.2 ml) and treated (orally) by 12 mg/kg of the compound 4 (loading dose) on the first day followed by 6 mg/ml for 2 weeks. To study the biological effects of compound 4, a fifth group was designed. In this group the mice were treated intravenously (I. V) with 12 mg/kg of the compound 4 on the first day followed by 6 mg/ml for 2 weeks. All doses of the standard drug and compound 4 were given twice daily.
# The effectiveness of the previous treatments on some biological concepts were evaluated. The biological parameters included daily body weight (gm), mortality (%), food consumption (g/day/mouse), water consumption (ml/day/mouse), serum glutamic oxaloacetic transaminase [SGOT(AST) (U/L)], serum glutamic-pyruvic transaminase [SGPT(ALT)(U/L)], alkaline phosphatase (U/L), gamma-glutamyl transferase (GGT) (U/L), bilirubin (mg/dl)], cholesterol (mg/dl), triglycerides (mg/dl), high-density lipoprotein (HDL) (mg/dl), very-low-density lipoprotein (VLDL) (mg/dl), low-density lipoprotein (LDL) (mg/dl), lactate dehydrogenase (LDH) (U/L), glucose (mg/dl), total protein (mg/dl), malondialdehyde (MDA) (nmol/g), nonprotein sulfyhydryl (NP-SH) (nmol/g). Addition hematologic constituents including white blood cells (WBC) (cell/mm^3), red blood cells (RBC) (10^6/mm^3), hemoglobin (HGB) (g/dL), HCT, Platelets (PLT) (10^3/mm^3), mean corpuscular volume (MCV) (fL), mean corpuscular hemoglobin (MCH) (pg), mean corpuscular hemoglobin concentration (MCHC) (g/dL), neutrophils (%), lymphocytes (%), eosinophils (%) and monocytes (%)] were evaluated (Classics Lowry et al. 1951; Utley et al. 1967; Sedlak et al. 1968). SGOT (AST), SGPT (ALT), ALP, GGT, bilirubin LDH and total protein were estimated using Reflotron Plus Analyzer and Roche kits (Roche Diagnostics GmbH, Mannheim Germany) and United diagnostic kits assay. Hematological tests were performed by Mindray BC-2800VET auto Hematology Analyzer.
# [1] = C. albicans-infected mice, day 1
# [2] = C. albicans-infected mice, day 2
# [3] = C. albicans-infected mice, day 3
# [4] = C. albicans-infected mice, day 4
# [5] = C. albicans-infected mice, day 5
# [6] = C. albicans-infected mice, day 6
# [7] = C. albicans-infected mice, day 7
# [8] = C. albicans-infected mice, day 8
# [9] = C. albicans-infected mice, day 9
# [10] = C. albicans-infected mice, day 10
# [11] = C. albicans-infected mice, day 11
# [12] = C. albicans-infected mice, day 12
# [13] = C. albicans-infected mice, day 13
# [14] = C. albicans-infected mice, day 14
# [15] = C. albicans-infected mice, day 15
# [16] = blood, C. albicans-infected mice, oral 12 mg/kg then 6 mg/ml for 2 weeks
# [17] = liver tissue, C. albicans-infected mice, oral 12 mg/kg then 6 mg/ml for 2 weeks
# [18] = serum, C. albicans-infected mice, oral 12 mg/kg then 6 mg/ml for 2 weeks
compound,measurement,setting,value
"CCOC(=O)CSC(=S)SCC(=O)OCC [Compound 4, diethyl 2,2′-(thiocarbonylbis(sulfanediyl))diacetate]",daily body weight,"C. albicans-infected mice, day 0",21.00 ± 0.36 gm
same,% change in daily body weight,[1],2.38%
same,Food consumption,[1],4.5 g/day/mice
same,Mortality,[1],0%
same,Water consumption,[1],4.5 g/day/mice
same,daily body weight,[1],21.50 ± 0.26 gm
same,% change in daily body weight,[2],4.76%
same,Food consumption,[2],4.6 g/day/mice
same,Mortality,[2],0%
same,Water consumption,[2],4.5 g/day/mice
same,daily body weight,[2],22.00 ± 0.25 gm
same,% change in daily body weight,[3],6.19%
same,Food consumption,[3],4.7 g/day/mice
same,Mortality,[3],0%
same,Water consumption,[3],4.7 g/day/mice
same,daily body weight,[3],22.3 ± 0.21 gm
same,% change in daily body weight,[4],9.04%
same,Food consumption,[4],4.9 g/day/mice
same,Mortality,[4],0%
same,Water consumption,[4],4.9 g/day/mice
same,daily body weight,[4],22.90 ± 0.27 gm
same,% change in daily body weight,[5],12.16%
same,Food consumption,[5],4.00 g/day/mice
same,Mortality,[5],10%
same,Water consumption,[5],4.2 g/day/mice
same,daily body weight,[5],23.55 ± 0.37 gm
same,% change in daily body weight,[6],15.34%
same,Food consumption,[6],4.2 g/day/mice
same,Mortality,[6],10%
same,Water consumption,[6],4.6 g/day/mice
same,daily body weight,[6],24.22 ± 0.32 gm
same,% change in daily body weight,[7],17.46%
same,Food consumption,[7],4.2 g/day/mice
same,Mortality,[7],10%
same,Water consumption,[7],5.7 g/day/mice
same,daily body weight,[7],24.66 ± 0.23 gm
same,% change in daily body weight,[8],18.45%
same,Food consumption,[8],4.3 g/day/mice
same,Mortality,[8],20%
same,Water consumption,[8],4.6 g/day/mice
same,daily body weight,[8],24.87 ± 0.29 gm
same,% change in daily body weight,[9],20.23%
same,Food consumption,[9],4.5 g/day/mice
same,Mortality,[9],20%
same,Water consumption,[9],4.6 g/day/mice
same,daily body weight,[9],25.25 ± 0.25 gm
same,% change in daily body weight,[10],20.83%
same,Food consumption,[10],4.5 g/day/mice
same,Mortality,[10],20%
same,Water consumption,[10],4.8 g/day/mice
same,daily body weight,[10],25.37 ± 0.26 gm
same,% change in daily body weight,[11],24.48%
same,Food consumption,[11],4.7 g/day/mice
same,Mortality,[11],30%
same,Water consumption,[11],5.1 g/day/mice
same,daily body weight,[11],26.14 ± 0.26 gm
same,% change in daily body weight,[12],25.17%
same,Food consumption,[12],5.0 g/day/mice
same,Mortality,[12],30%
same,Water consumption,[12],5.4 g/day/mice
same,daily body weight,[12],26.28 ± 0.28 gm
same,% change in daily body weight,[13],29.93%
same,Food consumption,[13],5.14 g/day/mice
same,Mortality,[13],30%
same,Water consumption,[13],5.5 g/day/mice
same,daily body weight,[13],27.28 ± 0.28 gm
same,% change in daily body weight,[14],34.92%
same,Food consumption,[14],5.3 g/day/mice
same,Mortality,[14],30%
same,Water consumption,[14],5.5 g/day/mice
same,daily body weight,[14],28.33 ± 0.49 gm
same,% change in daily body weight,[15],36.50%
same,Food consumption,[15],5.5 g/day/mice
same,Mortality,[15],30%
same,Water consumption,[15],5.8 g/day/mice
same,daily body weight,[15],28.66 ± 0.33 gm
same,Eosinophils Mean ± SE,[16],1.30 ± 0.02%
same,HCT Mean ± SE,[16],31.3 ± 0.42
same,HGB Mean ± SE,[16],9.8 ± 0.14 g/dL
same,Lymphocytes Mean ± SE,[16],7.10 ± 0.07%
same,MCH Mean ± SE,[16],26.3 ± 0.5 pg
same,MCHC Mean ± SE,[16],23.4 ± 1.0 g/dL
same,MCV Mean ± SE,[16],53.7 ± 2.0 fL
same,Monocytes Mean ± SE,[16],0.88 ± 0.07^b %
same,Neutrophils Mean ± SE,[16],24.1 ± 0.2%
same,PLT Mean ± SE,[16],522.3 ± 10.1 10^3/mm^3
same,RBC Mean ± SE,[16],6.16 ± 0.1 10^6/mm^3
same,WBC Mean ± SE,[16],7540.8 ± 87.3 Cell/mm^3
same,"effect on mortality caused by C. albicans, in words","dose of 800 mg as the loading dose, followed by 400 mg/d for 2 week",reduced the mortality
same,MDA,[17],4.57 ± 0.25***^b nmol/g
same,Total Protein,[17],77.84 ± 2.37**^b g/l
same,Alkaline phosphatase Mean ± SE,[18],354.66 ± 5.57 U/L
same,Bilirubin Mean ± SE,[18],1.15 ± 0.03 mg/dL
same,Cholesterol Mean ± SE,[18],159.8 ± 3.4 mg/dL
same,GGT Mean ± SE,[18],7.18 ± 0.20 U/L
same,Glucose level Mean ± SE,[18],166.83 ± 4.32**^b mg/dl
same,HDL Mean ± SE,[18],26.9 ± 1.1 mg/dL
same,LDH Mean ± SE,[18],220.98 ± 3.96**^b U/L
same,LDL Mean ± SE,[18],105.9 ± 4.6 mg/dL
same,SGOT(AST) Mean ± SE,[18],169.33 ± 2.69 U/L
same,SGPT(ALT) Mean ± SE,[18],83.50 ± 2.35 U/L
same,Total Protein Mean ± SE,[18],4.91 ± 0.09
same,Triglycerides Mean ± SE,[18],134.8 ± 3.8 mg/dL
same,VLDL Mean ± SE,[18],26.9 ± 0.7 mg/dL

# From US9988348B1, “Synthesis and antimicrobial use of a trithiocarbonate derivative” (KING SAUD UNIVERSITY, priority 2017, dated 2018)
